{
  "source": "patent US20060229255A1",
  "about": "“Identification of n-alkylglycine trimers for induction of apoptosis” (priority 2003, published 2006)",
  "format_in_all_cases": "cell-based, human",
  "key": {"[1]": {"tested_on": "HT29 cells", "assay": "DNA analysis by flow cytometry (cell cycle profile, sub-G1 peak)", "details": "for Dose dependence of subG1 peak: HT29, 72 h, increasing dose 1-35 or 40 μM; for Apoptosis induction (sub-G1 peak detection): HT29, 72 h treatment; for Cells in G1-phase: HT29, compound alone, 24 h in culture; for Maximum apoptosis in time-course: HT29, highest dose assayed, 72 h; for Cell population retained in G2/M phase: HT29, in combination with low doses of Taxol", "procedure": "DNA analysis. Floating and adherent cells treated with the compounds were collected by trypsinization and washed twice with PBS. The cells were permeabilized overnight at −20° C. with ice-cold ethanol 70%. The cells were washed in PBS, adjusted at 0.5×10^6 cells/ml and incubated with 20 μg/ml Propidium Iodide and 2 μl/ml RNase DNase-free for 30 min at 30° C. Cells were maintained overnight at 4° C. and then analysed by flow cytometry. Flow cytometric experiments were carried out using an Epics XL flow cytometer (Coulter Corporation, Hialeah, Fla.). The instrumet was set up with the standard configuration: excitation of the sample was done using an standard 488 nm air-cooled argon-ion laser at 15 mW power. Forward scatter (FSC), side scatter (SSC) and red (620 nm) fluorescence for PI were adquired. Optical alignement was based on optimized signal from […] fluorescent beads (Immunocheck, Epics Division). Time was used as a control of the stability of the instrument. Red fluorescence was projected on a 1024 monoparametrical histogram. Aggregates were excluded gating single cells by their area vs. peak fluorescence signal. DNA analysis (Ploidy analysis) on single fluorescence histograms was done using Multicycle software (Phoenix Flow Systems, San Diego, Calif.).\nFIG. 2. N10-13-10C and N13-13-10C are pro-apoptotic peptoids while N4-13-10C and N5-13-10C are not. Cell cycle profile was analysed by DNA staining. HT29 cells were grown for 72 h in presence of N4-13-10C (100 μM), N5-13-10C (100 μM), N10-13-10C (40 μM), N13-13-10C (35 μM), Taxol (11 nM) or DMSO as negative control. Fraction of cells at G0/G1, S, G2/M or subG1 peak are specified.\nFIG. 3. Specific pro apoptotic effect of N10-13-10C and N13-13-10C. (A) SubG1 peak analysis on several cell lines including HT29, LoVo, MDA.MB.435 and its lung metastatic derivatives lung 2 and lung 6 after 72 h treatment with N10-13-10C or N13-13-10C at IC50 values specified on Table 1. (B) Dose-response analysis of subG1 peak after 72 h treatment of HT29 cells with N 10-13-10C or N13-13-10C at 1, 5, 10, 20, 30 and 35 or 40 μM, respectively. Both, floating and adherent cells were collected, fixed, stained with propidium iodide and DNA content was evaluated by flow cytometry. The fraction of cells with hypodiplod DNA content, i.e. subG1 peak are shown.\nFIG. 4. (A) Time course analysis of cell cycle profile after treatment of HT29 cells with N10-13-10C (40 μM), N13-13-10C (35 μM) and/or Taxol (11 nM) for 24 h, 48 h and 72 h. The fraction of cells with subG1 (dark blue), G0/G1 (red), S (yellow), G2/M (blue) DNA content are shown as % of total cell population. (B.) N13-13-10C pulse experiments. HT29 cells were treated transiently with 35 μM N13-13-10C for 1, 3, 6, 24, 48 or 72 h and returned to medium without product for up to 72 h. DNA staining was analyzed by flow cytometry."}, "[2]": {"tested_on": "Bcl-xL", "assay": "Western blot of Bcl-xL phosphorylation", "details": "HT29 cells, 3, 6 and 24 h", "procedure": "(§1) Western blotting. Floating and adherent cells were harvested and pellets were resuspended in RIPA buffer (50 mM Tris/HCl 7.4, 250 mM NaCl, 0,5% Igepal CA630, 5 mM EDTA, 1 mM PMSF, 10 μg/ml leupeptin, 50 mM NaF, 0.1 mM Na3VO4) or Deoxycholate buffer (10 mM phosphate buffer 7.4, […] NaCl, 0.5% Deoxycholate, 1% Igepal, 0.1% SDS, 1 mM PMSF). Protein concentration was determined with BCA Protein Assay Kit (Pierce) for RIPA extracts or Bradford assay (BioRad) for Deoxycholate extracts. Total protein (20-30 μg/lane) were separated by SDS-PAGE, transferred to PVDF membranes (Gellman), and probed with antibodies against Bcl-xL (Transduction); Bax (Santa Cruz); JNK (Santa Cruz); phospho-JNK (Cell Signaling); pRb (Pharmingen); pRb-phospho Ser780 (Cell Signalling); p130 (Santa Cruz); p107 (Santa Cruz); Cdk2 (Santa Cruz); p27^Kip1 (Santa Cruz); p21^Cip1 (Santa Cruz); actin (Sigma); or tubulin (ICN) and developed with ECL system (AmershamPharmacia biotech)\n(§2) FIG. 6. (A) JNK is activated after N13-13-10C treatment. HT29 cells were treated for 1, 3, 6 and 24 h with N13-13-10C (35 μM), harvested and immunoblotted to assess activation of SAP/JNK MAP kinase. Western blot was first probed with the JNK-phosphor specific antibody, was stripped and reprobed with the pan-JNK antibody and actin to normalize total protein level. […]"}, "[3]": {"tested_on": "JNK", "assay": "Western blot with JNK-phosphorylation specific antibody", "details": "HT29 cells", "procedure": "as §1, §2"}, "[4]": {"tested_on": "pRb, p130, p107, p27kip1, p21Cip1", "assay": "Western blot of G1 checkpoint proteins in synchronized T98 g cells", "procedure": "as §1\nFIG. 8. Expression of protein involved in G0/G1 checkpoint. (A.) HT29 cells were treated for 1, 3, 6 and 24 h with N10-13-10C (40 μM) or N13-13-10C (35 µM), harvested and immunoblotted to assess total pRb levels or Cdk4 specific phosphorylation at pRb-Ser^780 (PpRb). Western blot was first probed with the pRb-Ser^780 phosphorylation specific antibody, was stripped and reprobed with the pan-pRb antibody and tubulin to normalize total protein level. (B.) T98 g cells were synchronized by serum starvation and reinitiated with 10% FCS and DMSO (C), N13-13-10C (100 μM) or Taxol (30 nM) for 15, 17, 24 or 29 h. Western blot of total protein extracts was probed with antibodies to p130, pRb, p107, Cdk2, cycA, p27, p21 and actin. Unphosphorylated, hypophosphorylated as well as hyperphosphorylated pRb are detected (arrows). (C.) HT29 cells treated for 24 and 48 h with N13-13-10C (40 μM) or DMSO as control. Immunoblots were stained with antibodies to Cdk2, cycA, p21, p27 and actin."}},
  "data": [
    {"compound": "COc1ccc(CCN(CC(=O)N(CCc2ccccc2)CC(N)=O)C(=O)CNCCc2ccccc2)cc1", "note": "[N10-13-10C]", "values": [
      {"measurement": "Dose dependence of subG1 peak", "setting": "[1]", "result": "dose-dependent apoptosis"},
      {"measurement": "Apoptosis induction (sub-G1 peak detection)", "setting": "[1]", "result": "able to induce apoptosis"},
      {"measurement": "Cells in G1-phase", "setting": "[1]", "result": "increase the percentage of cells in G1-phase"},
      {"measurement": "Maximum apoptosis in time-course", "setting": "[1]", "result": 20, "unit": "%"},
      {"measurement": "Cell population retained in G2/M phase", "setting": "[1]", "result": "about 60%"},
      {"measurement": "Bcl-xL phosphorylation (slower migrating band)", "setting": "[2]", "result": "not observed"}
    ]},
    {"compound": "COc1ccc(CCNCC(=O)N(CCc2ccc(OC)cc2)CC(=O)N(CCc2ccccc2)CC(N)=O)cc1", "note": "[N13-13-10C]", "values": [
      {"measurement": "Pulse necessary for irreversible induction of apoptosis", "setting": "[1]; HT29, 35 μM, returned to drug-free medium up to 72 h", "result": "≥ 24", "unit": "h"},
      {"measurement": "Dose dependence of subG1 peak", "setting": "[1]", "result": "dose-dependent apoptosis"},
      {"measurement": "Apoptosis induction (sub-G1 peak detection)", "setting": "[1]", "result": "able to induce apoptosis"},
      {"measurement": "Cells in G1-phase", "setting": "[1]", "result": "increase the percentage of cells in G1-phase"},
      {"measurement": "Maximum apoptosis in time-course", "setting": "[1]", "result": "around 40%"},
      {"measurement": "Cell population retained in G2/M phase", "setting": "[1]", "result": "about 60%"},
      {"measurement": "Cell cycle profile after short time pulses", "setting": "[1]; HT29, pulses of 1, 3 and 6 h", "result": "do not differ from control cells"},
      {"measurement": "Time of JNK activation (phosphorylation)", "setting": "[3]", "result": "3 to 6", "unit": "h"},
      {"measurement": "Time of p21Cip1 peak levels", "setting": "[4]; T98 g, 100 μM", "result": 17, "unit": "h"},
      {"measurement": "p27kip1 level", "setting": "[4]; T98 g, after 15 h of treatment", "result": "appreciable induction"},
      {"measurement": "Total pRb levels", "setting": "[4]; synchronized T98 g, 100 μM", "result": "decreased total pRb levels"},
      {"measurement": "p107 levels", "setting": "[4]; synchronized T98 g, 100 μM", "result": "down regulated"},
      {"measurement": "p130 phosphorylation", "setting": "[4]; synchronized T98 g, 100 μM", "result": "remains also hypophosphorylated"},
      {"measurement": "p130 total levels", "setting": "[4]; synchronized T98 g, 100 μM", "result": "total levels are increased"},
      {"measurement": "pRb hyperphosphorylation", "setting": "[4]; synchronized T98 g, 100 μM", "result": "prevented pRb hyperphosphorylation"}
    ]}
  ]
}
